Source: ChEMBL document CHEMBL1201862, “PubChem BioAssay data set” (2004)
Activity calls are given as the source filed them.

Columns and labels:
[1] = test system: Vero; experiment: Vero E6 cell cytotoxicity, SAR follow-up, cytotoxicity control for West Nile virus antiviral project, synthesized analogs (AID 2244); format: functional; conditions: Chlorocebus sabaeus
[2] = inhibitors of intracellular T. cruzi replication, confirmation, NIH3T3 host cells, beta-gal luminescence (AID 2044); format: functional, cell-based;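 further: intracellular parasites grown in NIH/3T3 mouse fibroblasts as host cells; luminescent beta-galactosidase reporter signal from transgenic T. cruzi replicating inside host cells; inhibitors lower the luminescence signal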
[3] = cytotoxicity toward NIH3T3 fibroblasts, dose response, counter-screen, cell-based, ATP luminescence, mouse fibroblasts (AID 2010); format: functional;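 further: cells exposed to compound for about 90 hours before reading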
[4] = molecular target: Voltage-dependent T-type calcium channel subunit alpha-1H (Homo sapiens, UniProt O95180); format: functional;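 further: channel activity triggered by adding a high calcium stimulation buffer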
Voltage-dependent T-type calcium channel subunit alpha-1H, sequence (O95180 whole entry): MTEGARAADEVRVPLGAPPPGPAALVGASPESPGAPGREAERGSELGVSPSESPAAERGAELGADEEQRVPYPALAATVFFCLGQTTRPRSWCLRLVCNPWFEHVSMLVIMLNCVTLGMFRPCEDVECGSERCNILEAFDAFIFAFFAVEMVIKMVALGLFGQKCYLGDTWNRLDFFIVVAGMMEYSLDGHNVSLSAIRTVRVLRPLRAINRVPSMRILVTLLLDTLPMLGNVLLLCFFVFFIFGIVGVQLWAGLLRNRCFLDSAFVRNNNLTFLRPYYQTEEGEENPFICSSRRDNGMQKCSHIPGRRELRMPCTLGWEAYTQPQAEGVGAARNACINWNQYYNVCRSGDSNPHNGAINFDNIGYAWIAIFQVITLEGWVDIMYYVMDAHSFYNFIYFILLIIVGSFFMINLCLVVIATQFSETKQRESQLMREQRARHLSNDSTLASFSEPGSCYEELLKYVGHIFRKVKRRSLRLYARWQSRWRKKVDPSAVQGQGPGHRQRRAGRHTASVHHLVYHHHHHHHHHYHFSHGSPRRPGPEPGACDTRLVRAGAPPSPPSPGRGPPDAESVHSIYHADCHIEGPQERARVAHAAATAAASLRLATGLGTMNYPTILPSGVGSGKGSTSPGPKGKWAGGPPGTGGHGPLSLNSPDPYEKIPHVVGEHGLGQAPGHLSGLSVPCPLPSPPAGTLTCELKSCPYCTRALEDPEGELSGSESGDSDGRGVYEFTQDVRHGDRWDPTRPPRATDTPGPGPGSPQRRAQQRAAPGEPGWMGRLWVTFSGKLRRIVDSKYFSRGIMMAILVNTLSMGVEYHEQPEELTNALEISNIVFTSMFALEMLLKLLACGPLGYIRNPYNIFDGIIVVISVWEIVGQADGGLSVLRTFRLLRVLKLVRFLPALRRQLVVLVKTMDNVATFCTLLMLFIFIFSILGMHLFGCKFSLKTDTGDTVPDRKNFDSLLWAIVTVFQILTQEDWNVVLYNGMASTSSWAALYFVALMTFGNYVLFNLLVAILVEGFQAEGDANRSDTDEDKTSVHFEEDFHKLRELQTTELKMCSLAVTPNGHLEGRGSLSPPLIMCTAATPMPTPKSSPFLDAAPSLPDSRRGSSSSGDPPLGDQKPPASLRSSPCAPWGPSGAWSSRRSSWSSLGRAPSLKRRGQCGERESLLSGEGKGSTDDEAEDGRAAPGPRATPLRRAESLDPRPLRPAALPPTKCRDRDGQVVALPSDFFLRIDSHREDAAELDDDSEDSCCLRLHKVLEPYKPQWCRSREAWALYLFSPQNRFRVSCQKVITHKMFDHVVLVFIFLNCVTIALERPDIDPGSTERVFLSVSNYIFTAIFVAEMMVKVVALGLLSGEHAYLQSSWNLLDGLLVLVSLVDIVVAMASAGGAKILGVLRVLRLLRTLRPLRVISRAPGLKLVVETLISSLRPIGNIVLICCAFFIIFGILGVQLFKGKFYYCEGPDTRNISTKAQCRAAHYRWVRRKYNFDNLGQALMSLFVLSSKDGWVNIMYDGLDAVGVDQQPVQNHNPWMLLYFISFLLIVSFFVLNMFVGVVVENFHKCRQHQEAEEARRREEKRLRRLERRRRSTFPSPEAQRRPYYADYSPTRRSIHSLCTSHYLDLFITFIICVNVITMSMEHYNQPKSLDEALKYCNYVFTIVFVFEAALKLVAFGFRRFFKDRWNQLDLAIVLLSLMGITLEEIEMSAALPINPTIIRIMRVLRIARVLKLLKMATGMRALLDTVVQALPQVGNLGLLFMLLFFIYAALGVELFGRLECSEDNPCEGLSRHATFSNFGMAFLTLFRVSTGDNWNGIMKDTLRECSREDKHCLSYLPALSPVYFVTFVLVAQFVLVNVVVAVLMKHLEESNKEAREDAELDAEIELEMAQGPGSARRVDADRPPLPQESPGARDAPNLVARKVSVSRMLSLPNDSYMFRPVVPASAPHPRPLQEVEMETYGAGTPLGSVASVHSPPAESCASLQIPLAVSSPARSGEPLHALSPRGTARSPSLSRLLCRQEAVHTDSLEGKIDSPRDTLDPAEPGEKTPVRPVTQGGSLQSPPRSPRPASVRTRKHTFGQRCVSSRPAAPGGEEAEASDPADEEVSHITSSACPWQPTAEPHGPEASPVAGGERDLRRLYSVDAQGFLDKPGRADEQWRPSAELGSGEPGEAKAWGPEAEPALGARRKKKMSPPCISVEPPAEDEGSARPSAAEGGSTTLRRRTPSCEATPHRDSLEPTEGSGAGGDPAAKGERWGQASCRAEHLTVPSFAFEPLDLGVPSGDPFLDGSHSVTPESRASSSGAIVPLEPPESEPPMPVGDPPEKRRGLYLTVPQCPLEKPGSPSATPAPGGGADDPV

[5] = test system: HEK293; experiment: cells; conditions: Homo sapiens
[6] = test system: HEK293; experiment: cells; conditions: Homo sapiens; remark: listed apart in the source
[7] = molecular target: Cytochrome P450 2C19 (Homo sapiens, UniProt P33261); experiment: Cytochrome panel assay with activity outcomes. Panel member name: p450-cyp2c19 Compounds with AC50 equal or less than 10 uM are considered active; format: functional; conditions: read-out: AC50
Cytochrome P450 2C19, sequence (P33261 whole entry): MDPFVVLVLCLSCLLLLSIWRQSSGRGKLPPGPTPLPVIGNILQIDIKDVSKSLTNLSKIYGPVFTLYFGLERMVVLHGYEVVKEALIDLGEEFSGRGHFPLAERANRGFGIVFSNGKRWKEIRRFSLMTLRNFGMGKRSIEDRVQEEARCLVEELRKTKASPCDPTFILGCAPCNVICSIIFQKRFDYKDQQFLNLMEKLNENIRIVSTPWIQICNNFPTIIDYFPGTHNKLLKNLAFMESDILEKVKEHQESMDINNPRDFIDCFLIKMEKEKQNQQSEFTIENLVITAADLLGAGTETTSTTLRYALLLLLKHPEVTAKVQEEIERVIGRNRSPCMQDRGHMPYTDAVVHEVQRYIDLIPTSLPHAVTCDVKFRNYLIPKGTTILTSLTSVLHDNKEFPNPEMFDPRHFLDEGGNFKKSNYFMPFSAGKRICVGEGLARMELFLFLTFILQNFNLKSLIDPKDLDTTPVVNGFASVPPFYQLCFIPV

[8] = molecular target: Cytochrome P450 2D6 (Homo sapiens, UniProt P10635);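 further: CYP2D6 member of a cytochrome P450 panel assay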
Cytochrome P450 2D6, sequence (P10635 whole entry): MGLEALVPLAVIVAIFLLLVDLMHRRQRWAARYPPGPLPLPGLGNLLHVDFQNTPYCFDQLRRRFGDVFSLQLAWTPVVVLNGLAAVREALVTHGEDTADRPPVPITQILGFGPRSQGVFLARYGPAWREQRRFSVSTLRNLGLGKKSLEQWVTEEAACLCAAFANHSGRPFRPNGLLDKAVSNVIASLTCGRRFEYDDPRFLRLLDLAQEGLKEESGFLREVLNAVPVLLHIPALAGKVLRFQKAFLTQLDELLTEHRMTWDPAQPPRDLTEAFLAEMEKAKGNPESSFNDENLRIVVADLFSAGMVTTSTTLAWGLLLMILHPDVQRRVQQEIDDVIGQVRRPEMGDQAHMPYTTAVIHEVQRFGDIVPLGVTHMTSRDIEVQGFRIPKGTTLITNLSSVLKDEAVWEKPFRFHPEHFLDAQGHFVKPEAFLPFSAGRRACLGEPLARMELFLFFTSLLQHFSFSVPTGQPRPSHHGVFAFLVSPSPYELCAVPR

[9] = cytotoxicity in HEK-293T cells, dose response, cytotoxicity control for BCR NF-kB inhibitor project, luminescence, B-cell screen hits (AID 489021); format: functional, cell-based;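 further: HEK-293T cells carrying an NF-kB luciferase reporter; cells exposed to compound for about 14 hours before viability readout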
[10] = molecular target: Glyceraldehyde-3-phosphate dehydrogenase (Homo sapiens, UniProt P04406)
Glyceraldehyde-3-phosphate dehydrogenase, sequence (P04406 whole entry): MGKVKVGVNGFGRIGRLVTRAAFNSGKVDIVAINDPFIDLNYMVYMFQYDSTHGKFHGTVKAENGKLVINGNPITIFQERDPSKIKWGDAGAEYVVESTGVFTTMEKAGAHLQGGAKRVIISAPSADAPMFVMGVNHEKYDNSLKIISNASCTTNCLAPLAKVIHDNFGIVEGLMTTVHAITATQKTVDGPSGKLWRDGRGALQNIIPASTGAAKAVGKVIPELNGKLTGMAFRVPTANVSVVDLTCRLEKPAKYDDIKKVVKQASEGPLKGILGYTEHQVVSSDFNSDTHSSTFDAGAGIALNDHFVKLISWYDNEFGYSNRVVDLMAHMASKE

[11] = molecular target: T1, Alkaline phosphatase, tissue-nonspecific isozyme (Homo sapiens, UniProt P05186); experiment: human TNAP enzyme inhibitors, SAR follow-up, biochemical, luminescent, dose response (AID 1056)
T1 sequence (P05186 whole entry): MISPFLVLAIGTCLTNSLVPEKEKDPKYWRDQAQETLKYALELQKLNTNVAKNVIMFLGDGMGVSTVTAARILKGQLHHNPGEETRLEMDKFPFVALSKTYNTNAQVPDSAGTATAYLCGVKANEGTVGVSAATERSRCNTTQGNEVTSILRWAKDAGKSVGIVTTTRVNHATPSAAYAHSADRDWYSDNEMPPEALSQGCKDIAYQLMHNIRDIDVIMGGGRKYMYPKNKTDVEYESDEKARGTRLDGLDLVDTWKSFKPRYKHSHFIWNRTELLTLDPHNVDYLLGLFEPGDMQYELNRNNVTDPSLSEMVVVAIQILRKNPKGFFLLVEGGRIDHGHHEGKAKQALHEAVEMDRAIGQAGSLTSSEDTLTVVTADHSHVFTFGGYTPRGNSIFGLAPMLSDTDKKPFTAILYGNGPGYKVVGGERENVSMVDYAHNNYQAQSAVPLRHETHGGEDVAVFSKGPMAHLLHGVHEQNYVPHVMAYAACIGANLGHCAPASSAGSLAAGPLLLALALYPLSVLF

[12] = test system: Streptococcus sp. 'group A'; experiment: growth inhibition of control SK(-) GAS strain, dose response, counter-screen for streptokinase expression inhibitor project, luminescence, kanamycin, BacTiterGlo, confirmation (AID 1900); format: functional, organism-based
[13] = test system: Streptococcus; experiment: Group A Streptococcus viability loss, dose response, counter-screen for streptokinase expression inhibitor project, luminescence, BacTiterGlo (AID 1915); format: functional, organism-based;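 further: potency for reduction of bacterial viability or growth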
[14] = THP-1 cell cytotoxicity, dose response, cytotoxicity control for non-replicating M. tuberculosis project (AID 489025); format: functional
[15] = HepG2 cell cytotoxicity, dose response, cytotoxicity control for non-replicating M. tuberculosis project (AID 489018); format: functional; conditions: Mycobacterium tuberculosis
[16] = Vero E6 cell cytotoxicity, dose response, cytotoxicity control for non-replicating M. tuberculosis project, secondary assay (AID 492998); format: functional, VeroE6; conditions: Vero C1008
[17] = cells; format: functional

With `COc1ccc(-c2csc(NC(=O)c3cccc(Cl)c3)n2)cc1` as the molecule, how does the CC50 [1] read?
Its CC50 is > 40 µM (active).

Which EC50 [2] does the source give for `CCC(C)(C)n1nnnc1C(c1ccc(C)cc1)N(Cc1ccco1)Cc1cccs1` (stereo not given) here?
The EC50 was 2.86 µM (active).

And the EC50 [3]?
The EC50 was > 60 µM (not active).

And the EC50 [4]?
The EC50 was 6.74 µM (active).

And the EC50 [5]?
Its EC50 is > 59.6 µM (inactive).

What about the EC50 [6] of the same molecule?
Its EC50 is > 59.6 µM (inactive).

With `CCCNC(=O)c1cc2c(C(F)(F)F)nn(C)c2s1` as the molecule, how does the AC50 [7] read?
Its AC50 is 31.6 µM (inconclusive).

What about the AC50 [8] of the same molecule?
Its AC50 is “inconclusive”.

For `O=C(NCCCN1CCOCC1)c1cc(-c2ccc(Br)cc2)on1`, which IC50 [9] is on record?
The IC50 was > 80 µM (inactive).

With `O=C(CSc1nc2ccccc2c(=O)n1-c1ccc(F)cc1)Nc1ccc2c(c1)OCCO2` as the molecule, how does the CC50 [1] read?
Its CC50 is > 40 µM (active).

For `O=S(=O)(Nc1cnc2ccccc2c1)c1cc(Cl)ccc1F`, which IC50 [10] is on record?
Its IC50 is > 100 µM (not active).

And the IC50 [11]?
The IC50 was 4.26 µM (active).

Which EC50 [12] does the source give for `CN(c1ccccc1)S(=O)(=O)c1ccc(C(=O)Nc2nnc(-c3ccc(F)cc3)o2)cc1` here?
Its EC50 is 0.159 µM (active).

What about the EC50 [13] of the same molecule?
Its EC50 is 2.93 µM (active).

What about the CC50 [14] of the same molecule?
The CC50 was 17.2 µM (active).

What about the CC50 [15] of the same molecule?
The CC50 was 15.6 µM (active).

And the CC50 [16]?
The CC50 was 7.81 µM (active).

What about the IC50 [17] of the same molecule?
The IC50 was > 50 µM (active).

What does the source list for `Cc1ccc(S(=O)(=O)Nc2cnc3ccccc3c2)c(C)c1C`?
IC50 [10]: > 100 µM (not active); IC50 [11]: > 100 µM (inactive)
